The numbers were not newly measured in patent publication US6706285B1, “Enteric coated formulation of a benzimidazole derivative and method for preparation thereof” (Hanms Pharm. Co., Ltd., priority 1998, dated 2004), which cites them from elsewhere.

SMILES strings stand for the structures. Like-named read-outs stand apart in the source and are kept apart here.

`COc1ccc2[nH]c([S+]([O-])Cc3ncc(C)c(OC)c3C)nc2c1` (stereo not drawn) [omeprazole, 5-methoxy-2[[(4-methoxy-3,5-dimethyl-2-pyridinyl)methyl]sulfinyl]-1H-benzimidazole]: the half-life result runs as follows: (acidic condition at a pH of 4 or less) “less than 10 minutes”; (at a pH of 11) “about 300 days”; (neutral condition at a pH of about 7.0) “about 14 hours”.
